Results on two compounds are retold here after patent US20050267085A1, “Combined therapy for the treatment of Parkinson's disease” (UNIVERSITE LAVAL, priority 2004, published 2005).

Test [1] has as its system hemiparkinsonian MPTP-monkeys. Nature of the test: Ipsilateral and contralateral circling behavior in hemiparkinsonian MPTP-monkeys. Format: in vivo, macaca fasicularis. As for the experimental part:
(§1) Six hemiparkinsonian ovariectomized female macaca fasicularis monkeys weighing 2.8-6.5 kg were used in this experiment. During induction of the parkinsonian syndrome, they received 1-methyl-4-phenyl-1,2,3,6-tetrahydropyridine (MPTP, 3 mg) via an Alzet pump during a period of 1-2 weeks according to the monkey. The procedure consisted of putting the pump in the left substantia nigra and the MPTP infused lesioned the dopaminergic cells. The animals were used at least 5 months after the induction of their hemiparkinsonian state at which time they had stabilized. For a further experimentation, 6 bilaterally-lesioned parkinsonian macaca fasicularis monkeys were used. The induction of the parkinsonian syndrome was performed according to the above-described methodology, except that the Alzet pump was installed so as to lesion dopaminergic cells of the substantia nigra in both brain hemispheres.
(§2) To determine the effect of levodopa, DHEA or combination thereof on parkinsonian monkeys, ipsilateral and contralateral circling was monitored in hemiparkinsonian monkeys while Parkinsonian score was determined in bilaterally-lesion parkinsonian monkeys. Hemiparkinsonian monkeys turn towards the ipsilateral side of the lesion (to the left) under basal conditions and upon dopaminergic stimulation this circling changes for the contralateral side (to the right). Parkinsonian score was determined in bilaterally-lesion parkinsonian monkeys according to the method known in the art. All received the same treatments and were their own controls. Monkeys were first treated with levodopa for priming until a stable antiparkinsonian behavior was observed. During the investigation of DHEA administered alone, priming of the monkeys was continued with administration of levodopa/benserazide (50/12.5 mg) given twice weekly. DHEA treatments were started on the third day after the last levodopa dose.
(§3) DHEA was administered at different doses (1, 5, and 15 mg/kg) by nasogastric gavage (n.g.) alone and in combination (DHEA: 1, 5, 10 and 15 mg/kg n.g.) with a s.c. T.L-Dopa. Threshold doses of levodopa, that is the minimal dose to obtain contralateral circling were sought for each of the MPTP-monkeys and varied from one monkey to another from 3 to 8 mg/kg (3, 4, 4.5, 5, 5, and 8 mg/kg). Higher doses of DHEA (25-100 mg/kg) alone or with T.L-Dopa were also tested in a similar paradigm.
Treatments were administered in the morning and each animal was recorded via a video camera system. Duration of locomotor activation lasted for 90 min for all hemiparkinsonian animals and treatments. […] Each treatment was repeated 2-3 times and averaged for each monkey.
Experimental data was compared using an ANOVA for repeated measures followed by post-hoc pair wise comparisons with Fisher's probability of least significant difference test (PLSD). A p<0.05 was required for the results to be considered statistically significant. Statistical comparison of square root transformation of the data was used to stabilize variance when required (D. C. Montgomery (1991) Third Edition, Design and analysis of experiments. ed. Whileys and Sons pp. 216).

Test [2] has as its system bilaterally-lesioned parkinsonian MPTP-monkeys. Nature of the test: Parkinsonian score and duration of levodopa effect in bilaterally-lesioned parkinsonian MPTP-monkeys. The format is in vivo, macaca fasicularis. As for the experimental part:
as §1, §2, §3
Experimental data was compared using an ANOVA for repeated measures followed by post-hoc pair wise comparisons with Fisher's probability of least significant difference test (PLSD). A p<0.05 was required for the results to be considered statistically significant. […]

Setting [3] is: DHEA 1 mg/kg n.g. added to threshold dose s.c. T.L-Dopa, compared to saline or T.L-Dopa alone.
[4] abbreviates: DHEA 5, 10 and 15 mg/kg n.g. combined with T.L-Dopa, compared to saline.
The mark [5] stands for this setting: threshold dose of levodopa alone.

For `C[C@]12CC[C@H](O)CC1=CC[C@@H]1[C@@H]2CC[C@]2(C)C(=O)CC[C@@H]12` [DHEA, Dehydroepiandrosterone], the “contralateral circling (mean/30 min)” value in test [1] (setting [3]) is “significantly increased”; in test [1] (setting [4]), “significantly increased”; in test [1] (DHEA alone 1-15 mg/kg n.g., compared to saline treatment), “significantly and similarly increased”. The levodopa-induced locomotor activity entry in test [1] (DHEA added to minimal threshold doses of levodopa) is reported as “potentiates”. Moreover, the ipsilateral circling entry in test [1] (DHEA alone or DHEA combined to T.L-Dopa, versus basal conditions or saline) is “decreased”. Moreover, the “dose-response on circling behavior” value in test [1] (DHEA alone or combined with levodopa) is reported as “did not produce a significant dose-response”. Moreover, in test [1] (DHEA alone, n.g.), the “Duration of the DHEA effect” value was found to be 90 min. For the same compound, the “effect on levodopa-induced change in ipsilateral, contralateral and ipsilateral-contralateral circling” value in test [1] (optimal dose of DHEA for each monkey combined with threshold levodopa) is recorded as “significantly potentiated”. In addition, the Parkinsonian score entry in test [2] (setting [3]) is reported as “decreased”; in test [2] (setting [4]), “reduced”; in test [2] (DHEA alone at different doses, n.g.), “reduce”. Besides, the “increase of duration of levodopa effect” value in test [2] (DHEA 1 and 5 mg/kg with threshold dose of levodopa, versus levodopa alone) is “approximately 40%”.

Turning to `N[C@@H](Cc1ccc(O)c(O)c1)C(=O)O` [Levodopa, L-3,4-dihydroxyphenylalanine], in test [1] (setting [5]), the contralateral circling result was “increased”, the ipsilateral circling entry was “decreased” and the overall ipsilateral-contralateral circling entry was “reducing”.
